Source: article PMC3528345 (Cancer research, 2012)

Target: PARP1 (Gallus gallus, UniProt P26446)
Sequence (P26446 whole entry): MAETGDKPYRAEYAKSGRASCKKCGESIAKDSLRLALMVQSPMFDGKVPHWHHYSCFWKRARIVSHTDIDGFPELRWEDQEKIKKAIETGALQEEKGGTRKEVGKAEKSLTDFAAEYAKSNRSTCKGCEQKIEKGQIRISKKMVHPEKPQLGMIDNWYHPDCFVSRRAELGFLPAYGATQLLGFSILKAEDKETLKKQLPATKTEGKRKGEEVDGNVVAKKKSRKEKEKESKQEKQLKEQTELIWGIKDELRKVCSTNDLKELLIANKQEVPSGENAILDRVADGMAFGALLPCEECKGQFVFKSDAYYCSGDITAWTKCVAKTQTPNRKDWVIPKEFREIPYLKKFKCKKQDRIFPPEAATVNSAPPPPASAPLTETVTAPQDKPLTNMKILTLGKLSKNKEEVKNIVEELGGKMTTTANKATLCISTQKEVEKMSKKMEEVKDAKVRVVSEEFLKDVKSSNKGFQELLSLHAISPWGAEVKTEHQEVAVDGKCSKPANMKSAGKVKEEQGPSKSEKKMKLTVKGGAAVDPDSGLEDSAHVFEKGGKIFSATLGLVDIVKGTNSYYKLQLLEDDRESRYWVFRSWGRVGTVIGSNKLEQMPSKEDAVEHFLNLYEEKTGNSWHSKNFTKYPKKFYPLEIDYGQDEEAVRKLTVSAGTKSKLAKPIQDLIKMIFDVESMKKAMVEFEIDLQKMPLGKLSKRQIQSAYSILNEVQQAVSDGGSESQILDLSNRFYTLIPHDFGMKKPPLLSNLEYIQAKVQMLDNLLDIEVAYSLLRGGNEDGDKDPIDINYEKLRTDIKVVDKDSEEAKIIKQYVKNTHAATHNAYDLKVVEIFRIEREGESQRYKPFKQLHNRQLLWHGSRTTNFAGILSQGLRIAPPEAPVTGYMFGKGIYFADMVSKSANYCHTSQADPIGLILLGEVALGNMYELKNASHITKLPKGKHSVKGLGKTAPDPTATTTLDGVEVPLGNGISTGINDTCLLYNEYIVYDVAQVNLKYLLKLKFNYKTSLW

SMILES	IC50
C[C@]1(c2nc3c(C(N)=O)cccc3[nH]2)CCCN1 [veliparib]	0.0105 µM
NC(=O)c1cccc2cn(-c3ccc([C@@H]4CCCNC4)cc3)nc12 [MK-4827]	0.0505 µM
